From the Kinase Knowledgebase extract (Sharma et al. 2016) come the findings set out here.

In the experiment the target is EGFR (mouse) (UniProt P00533). The conditions noted are these: nih3t3 fibroblast.

In the case of `COc1ccc2c(c1)NC(=O)/C2=C\c1[nH]cc(CCC(=O)O)c1C`, the IC50 is greater than 50 µM. `Cc1c(CCC(=O)O)c[nH]c1/C=C1\C(=O)Nc2cc(-c3ccccc3)ccc21` came in with an IC50 of 21.8 µM. Consider `Cc1c[nH]c(/C=C2\C(=O)Nc3cccc(C)c32)c1CCC(=O)O`, for which the IC50 is 28.8 µM. In turn, `COc1ccccc1-c1ccc2c(c1)NC(=O)/C2=C\c1[nH]cc(CCC(=O)O)c1C` showed an IC50 of 19.2 µM.

Take `Cc1[nH]c(/C=C2\C(=O)Nc3ccc(C(=O)O)cc32)c(C)c1CCC(=O)O`: the IC50 was greater than 50 µM. Regarding `Cc1c(CCC(=O)O)c[nH]c1/C=C1\C(=O)Nc2ccc(C(=O)O)cc21`, the IC50 was greater than 50 µM. With `Cc1c[nH]c(/C=C2\C(=O)Nc3ccccc32)c1CCC(=O)O`, the IC50 is greater than 50 µM. `Cc1c(CCC(=O)O)c[nH]c1/C=C1\C(=O)Nc2ccc(S(N)(=O)=O)cc21` returned an IC50 greater than 50 µM.

Consider `COc1cccc(-c2ccc3c(c2)NC(=O)/C3=C\c2[nH]cc(C)c2CCC(=O)O)c1`, for which the IC50 worked out at 49.2 µM. `CCOc1cccc(-c2ccc3c(c2)NC(=O)/C3=C\c2[nH]cc(C)c2CCC(=O)O)c1` gave an IC50 greater than 50 µM. For the compound `COc1cccc(-c2ccc3c(c2)NC(=O)/C3=C\c2[nH]c(C)c(CCC(=O)O)c2C)c1`, the IC50 amounted to 24.1 µM.

Consider `Cc1c[nH]c(/C=C2\C(=O)Nc3ccc(Br)cc32)c1CCC(=O)O`, for which the IC50 is greater than 50 µM. For the compound `Cc1c(CCC(=O)O)c[nH]c1/C=C1\C(=O)Nc2ccccc21`, the IC50 is greater than 50 µM.

`COc1ccc2c(c1)NC(=O)/C2=C\c1[nH]c(C)c(CCC(=O)O)c1C` showed an IC50 greater than 50 µM. As for `Cc1[nH]c(/C=C2\C(=O)Nc3ccc(Br)cc32)c(C)c1CCC(=O)O`, the figure is greater than 50 µM.

`Cc1[nH]c(/C=C2\C(=O)Nc3cc(-c4ccccc4)ccc32)c(C)c1CCC(=O)O` had a half-maximal inhibitory concentration (IC50) of 21.9 µM.

In general, IC50 refers to the concentration at which inhibition is half-maximal.
